Test results: ChEMBL document CHEMBL1201862, “PubChem BioAssay data set” (2004)
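A five-concentration, 48-hour dose response in 96-well plates underlies each endpoint, interpolated linearly between surrounding concentrations. GI50 marks 50% less growth.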 The source made the active and inactive calls. Rule as the data show it: active = GI50 up to about 1.1 µM and inactive = higher.

Experiments:
Assay in all cases: NCI-60 cell line screen, 48 h
CAKI-1 = test system: CAKI-1
HCT-15 = test system: HCT-15
HL-60 = test system: HL-60
HT-29 = test system: HT-29
MCF7 = test system: MCF7
MDA-N = test system: MDA-N
OVCAR-3 = test system: OVCAR-3
OVCAR-5 = test system: OVCAR-5
OVCAR-8 = test system: OVCAR-8
PC-3 = test system: PC-3
SK-MEL-2 = test system: SK-MEL-2
SK-MEL-5 = test system: SK-MEL-5
SK-OV-3 = test system: SK-OV-3
SN12C = test system: SN12C
SW-620 = test system: SW-620
T47D = test system: T47D
U-251 = test system: U-251
UO-31 = test system: UO-31
786-0 = test system: 786-0
SNB-75 = test system: SNB-75

Row | SMILES | GI50 (CAKI-1) | GI50 (HCT-15) [µM] | GI50 (HL-60) | GI50 (HT-29) | GI50 (MCF7) | GI50 (MDA-N) | GI50 (OVCAR-3) | GI50 (OVCAR-5) | GI50 (OVCAR-8) | GI50 (PC-3) | GI50 (SK-MEL-2) | GI50 (SK-MEL-5) | GI50 (SK-OV-3) | GI50 (SN12C) | GI50 (SW-620) | GI50 (T47D) | GI50 (U-251) | GI50 (UO-31) | GI50 (786-0) | GI50 (SNB-75)
1 | COP(=O)(O)C(N)Cc1c[nH]c2ccccc12 (centres undefined) | > 100 µM (inactive) | > 100 | > 10 µM (inactive) | > 100 µM (inactive) | > 100 µM (inactive) | > 100 µM (inactive) | > 100 µM (inactive) | > 100 µM (inactive) | > 100 µM (inactive) | > 100 µM (inactive) | > 100 µM (inactive) | > 100 µM (inactive) | > 100 µM (inactive) | > 100 µM (inactive) | > 100 µM (inactive) | > 100 µM (inactive) | > 100 µM (inactive) | > 100 µM (inactive) | – | –
2 | Cc1occc1/C(S)=N\c1ccc(Cl)c(COC(C)(C)C)c1 | 17.8 µM (inactive) | 17.2 | 19.4 µM (inactive) | 15.7 µM (inactive) | 17.1 µM (inactive) | 16.1 µM (inactive) | 15.1 µM (inactive) | 19.4 µM (inactive) | 17.7 µM (inactive) | 14.5 µM (inactive) | 15.8 µM (inactive) | 16.2 µM (inactive) | 17.1 µM (inactive) | 14.4 µM (inactive) | 17.5 µM (inactive) | 12.1 µM (inactive) | 15.6 µM (inactive) | 13.1 µM (inactive) | 16.3 µM (inactive) | –
3 | c1ccc(Nc2nnc(-c3ccccc3Nc3ccccc3-c3nnc(Nc4ccccc4)s3)s2)cc1 | – | > 100 | > 100 µM (inactive) | > 100 µM (inactive) | > 100 µM (inactive) | > 100 µM (inactive) | > 100 µM (inactive) | > 100 µM (inactive) | > 100 µM (inactive) | > 100 µM (inactive) | > 100 µM (inactive) | > 100 µM (inactive) | – | – | > 100 µM (inactive) | – | > 100 µM (inactive) | > 100 µM (inactive) | > 100 µM (inactive) | > 100 µM (inactive)
4 | C=C1C(=O)O[C@H]2C(=O)[C@H](C)CCC[C@@](C)(O)/C=C\C[C@@]3(C)O[C@@H]3C[C@@H]12 | 12.9 µM (inactive) | 11.5 | – | 14.8 µM (inactive) | 18.7 µM (inactive) | 17.9 µM (inactive) | 11.2 µM (inactive) | 1.68 µM (inactive) | 19.9 µM (inactive) | 17 µM (inactive) | 19.5 µM (inactive) | 15.2 µM (inactive) | > 100 µM (inactive) | 17.1 µM (inactive) | 8 µM (inactive) | 23.7 µM (inactive) | 18.3 µM (inactive) | 13.5 µM (inactive) | 12.3 µM (inactive) | –
5 | Cc1ccc(/N=N/c2c(O)ccc3cc(S(=O)(=O)O)ccc23)cc1 | 23.9 µM (inactive) | > 100 | – | > 100 µM (inactive) | – | > 100 µM (inactive) | > 100 µM (inactive) | > 100 µM (inactive) | > 100 µM (inactive) | > 100 µM (inactive) | > 100 µM (inactive) | > 100 µM (inactive) | > 100 µM (inactive) | > 100 µM (inactive) | > 100 µM (inactive) | 66.8 µM (inactive) | > 100 µM (inactive) | > 100 µM (inactive) | 12.6 µM (inactive) | 34.8 µM (inactive)
6 | CO/C(C)=N/CCC1=CCCCC1 | > 100 µM (inactive) | > 100 | – | > 100 µM (inactive) | > 100 µM (inactive) | > 100 µM (inactive) | 89.1 µM (inactive) | > 100 µM (inactive) | > 100 µM (inactive) | > 100 µM (inactive) | > 100 µM (inactive) | > 100 µM (inactive) | > 100 µM (inactive) | – | > 100 µM (inactive) | > 100 µM (inactive) | > 100 µM (inactive) | > 100 µM (inactive) | > 100 µM (inactive) | > 100 µM (inactive)
7 | CO/C=C(/C(=O)OC)c1ccccc1[C@H]1C[C@@H]1c1ccc(OC)cc1 | 17.9 µM (inactive) | 19.2 | 25.2 µM (inactive) | 14.9 µM (inactive) | 32.1 µM (inactive) | 12.9 µM (inactive) | 16.3 µM (inactive) | 41.1 µM (inactive) | 28.6 µM (inactive) | 22.1 µM (inactive) | 13.2 µM (inactive) | 12.4 µM (inactive) | 17.8 µM (inactive) | 32.1 µM (inactive) | – | 21.1 µM (inactive) | 30.8 µM (inactive) | 26.4 µM (inactive) | 34 µM (inactive) | –
8 | CC[N+](CC)(CC)/C(=N\S(=O)(=O)c1ccc(Cl)cc1)[N-]S(=O)(=O)c1cc(C)c(Cl)cc1S | > 100 µM (inactive) | 66.7 | 53.8 µM (inactive) | 41.7 µM (inactive) | 53.2 µM (inactive) | > 100 µM (inactive) | 83 µM (inactive) | 58.2 µM (inactive) | > 100 µM (inactive) | 55.8 µM (inactive) | > 100 µM (inactive) | > 100 µM (inactive) | 62.8 µM (inactive) | – | 70.3 µM (inactive) | > 100 µM (inactive) | 43.1 µM (inactive) | > 100 µM (inactive) | > 100 µM (inactive) | –
9 | O=C(/C=C/c1ccc2c(c1)OCO2)Cc1nc2ccccc2[nH]c1=O | 16.8 µM (inactive) | 8.95 | 44.3 µM (inactive) | 28.5 µM (inactive) | 33.9 µM (inactive) | 26.6 µM (inactive) | 27.3 µM (inactive) | 22.9 µM (inactive) | 28.5 µM (inactive) | 23.2 µM (inactive) | 22 µM (inactive) | 32.6 µM (inactive) | 18.6 µM (inactive) | 24.1 µM (inactive) | 30.4 µM (inactive) | 12 µM (inactive) | 16.8 µM (inactive) | 22.9 µM (inactive) | 16.7 µM (inactive) | –
10 | Cc1ccc2c(c1)Nc1ccccc1P2(=O)O | > 100 µM (inactive) | > 100 | > 100 µM (inactive) | > 100 µM (inactive) | – | > 100 µM (inactive) | > 100 µM (inactive) | > 100 µM (inactive) | > 100 µM (inactive) | > 100 µM (inactive) | > 100 µM (inactive) | > 100 µM (inactive) | > 100 µM (inactive) | > 100 µM (inactive) | > 100 µM (inactive) | > 100 µM (inactive) | > 100 µM (inactive) | > 100 µM (inactive) | > 100 µM (inactive) | < 0.01 µM (active)
11 | CSC(=S)OC1C(CO[Si](C)(C)C(C)(C)C)OC2OC(C)(C)OC21 (centres undefined) | 31.6 µM (inactive) | 18.4 | – | 11.4 µM (inactive) | 16.3 µM (inactive) | 29.2 µM (inactive) | 17 µM (inactive) | 21.3 µM (inactive) | 27.3 µM (inactive) | 15.8 µM (inactive) | 15 µM (inactive) | 16.8 µM (inactive) | 20.2 µM (inactive) | 21.3 µM (inactive) | 17.3 µM (inactive) | – | 17.5 µM (inactive) | 17.7 µM (inactive) | 19.5 µM (inactive) | > 100 µM (inactive)
12 | COc1ccc2c(c1)/C(=C\c1c(Cl)[nH]c3ccccc13)C(=O)N2 | 3.86 µM (inactive) | 5.14 | 3.18 µM (inactive) | 2.14 µM (inactive) | 3.58 µM (inactive) | 1.75 µM (inactive) | 6 µM (inactive) | 10.9 µM (inactive) | 11.1 µM (inactive) | 4.9 µM (inactive) | 4.21 µM (inactive) | 3.6 µM (inactive) | 2.97 µM (inactive) | 7.8 µM (inactive) | 3.4 µM (inactive) | 26.1 µM (inactive) | 3.71 µM (inactive) | 6.78 µM (inactive) | 4.49 µM (inactive) | –
13 | CCC(C#N)NCc1cccc(CNC(C#N)CC)c1 (centres undefined) | > 100 µM (inactive) | > 100 | > 100 µM (inactive) | > 100 µM (inactive) | > 100 µM (inactive) | > 100 µM (inactive) | > 100 µM (inactive) | 20 µM (inactive) | > 100 µM (inactive) | > 100 µM (inactive) | > 100 µM (inactive) | > 100 µM (inactive) | 18.4 µM (inactive) | > 100 µM (inactive) | > 100 µM (inactive) | > 100 µM (inactive) | > 100 µM (inactive) | > 100 µM (inactive) | > 100 µM (inactive) | –
14 | O=C(O)c1cc2cc(OCc3ccccc3)ccc2[nH]1 | > 100 µM (inactive) | > 100 | > 100 µM (inactive) | – | 88.1 µM (inactive) | > 100 µM (inactive) | > 100 µM (inactive) | > 100 µM (inactive) | > 100 µM (inactive) | > 100 µM (inactive) | 61.7 µM (inactive) | > 100 µM (inactive) | > 100 µM (inactive) | > 100 µM (inactive) | > 100 µM (inactive) | > 100 µM (inactive) | > 100 µM (inactive) | > 100 µM (inactive) | > 100 µM (inactive) | –
15 | Cc1cc(O)c(C(C)C)cc1C(=S)Nc1ccc(Cl)cc1 | 14.6 µM (inactive) | 10.7 | 7.05 µM (inactive) | 14.8 µM (inactive) | 8.11 µM (inactive) | 11.4 µM (inactive) | 14.7 µM (inactive) | 15 µM (inactive) | 10.6 µM (inactive) | 11 µM (inactive) | 14.1 µM (inactive) | 11.5 µM (inactive) | 21.9 µM (inactive) | – | 14.3 µM (inactive) | 11.6 µM (inactive) | 14.7 µM (inactive) | – | 14.1 µM (inactive) | –
16 | Nc1ncnc2c1ncn2C1OC(CO)CC1O (centres undefined) | > 100 µM (inactive) | 17.6 | > 10 µM (inactive) | – | 6.08 µM (inactive) | 38.7 µM (inactive) | 39.3 µM (inactive) | > 100 µM (inactive) | 16.6 µM (inactive) | 9.27 µM (inactive) | – | > 100 µM (inactive) | 51.9 µM (inactive) | 25.6 µM (inactive) | 35.1 µM (inactive) | – | 41.7 µM (inactive) | > 100 µM (inactive) | 17.5 µM (inactive) | 35.2 µM (inactive)
